Reference: patent publication US5352667A, “Non-peptidic surrogates of the Arg-Gly-Asp sequence and pharmaceutical compositions comprising them” (priority 1991, dated 1994)
Entries after “also recorded” stand apart in the source; their conditions may differ.

Assays:
[1] = tested on: CD4^+ T cell adhesion to 120 kD fragment of FN; experiment: Inhibition of activated CD4+ T cell adhesion to 120 kD fragment of FN; assay type: cell-based, human; conditions: for % inhibition of adhesion of activated CD4^+ T cell to 120 kD fragment of FN / % Adhesion of activated CD4^+ T cell to 120 kD fragment of FN: 0.2 mM peptides and surrogates, mAb anti-CD29 1/200, anti-VLA5 1/400 diluted; for % inhibition of adhesion of activated CD4^+ T cell to 120 kD fragment of FN: * P<0.05; for % Adhesion of activated CD4^+ T cell to 120 kD fragment of FN: PMA activated, none 43 ± 4; for T cell adhesion to FN, in words: 0.2 mM, 120 kD fragment of FN
Protocol: To examine the adhesive properties of the T cells, 1 μg/50 μl/well of either fibronectin (FN) (Sigma), the 120 kD cell attachment fragment of FN (Telios Pharm. Inc. San Diego, CA), or laminin (LN) (Sigma), were added to 96-flat bottom microtiter-wells for 12 h. Unbound proteins were then washed away and remaining binding sites were blocked with 0.1% bovine serum albumin (BSA) added to the wells for 2 h and washed. CD4+T cells were purified from peripheral blood mononuclear leukocytes obtained from healthy human donors. The mononuclear cells were isolated using a Ficoll gradient, washed and incubated in RPMI supplemented with 10% fetal calf serum (FCS) and antibiotics in petri dishes at 37° C. humidified CO2 incubator. After 2 h, the non-adherent cells were isolated and applied on nylon-wool columns (1.5 h). CD4^+ T cells were then negatively selected by exposure of the cells to a cocktail of anti-CD8, CD19, and CD14 monoclonal antibodies (mAb) conjugated to magnetic-beads (Advanced Magnetics, MA). Unbound cells were recovered and their phenotype was examined. Purity of the CD4^+ T cells was always greater than 92% as determined by FACScan.
The purified CD4^+ T cells were radioactively labeled with ^51 [Cr](New England Nuclear) in RPMI +20% FCS for 2 h and washed. The cells were counted and seeded (0.2×10^5 cells) on the precoated microtiter wells in the presence or the absence of the various inhibitors. Coating was made either with FN, the 120 kD cell-attachment fragment of FN or with control adhesive protein laminin (LN). The inhibitors were various surrogates according to the invention, other test molecules or mAb. After 30 min incubation (in […] CO2 -- humidified incubator) the T cells were activated by 10 ng/ml phorbol myristate acetate (PMA) and the percent of T cells attached to the protein substrates was measured. Unbound cells were washed away after 20-30 min, the bound cells were lysed and their radioactivity was measured using radioactive counter. The amount of the radioactivity of the cell lysates represent the matrix-adherent cells and percent binding was calculated in comparison to the total radioactivity added to the wells. Activated T cell adhesion to control wells or to wells coated with BSA was always 2-5%; the level of adhesion of the non-activated T cells was always below 5%. Where indicated, 1/200 diluted mAb anti-CD29 (anti-β1 mAb Serotec, GB), or 1/400 diluted anti-VLA5 (the β1α5 FN-integrin receptor) mAb (Telios Pharm. Inc. San Diego), or 0.2 mM of RGD, GRGDSPK or GRGESP peptides (Sigma) were used. The tested non-peptidic surrogates, 0.2 mM in PBS, were used to pretreat the T cells for 15 min before seeding the cells *, P<0.05. The results shown in Tables 1A, 1B and 1C represent data obtained from several experiments that produced essentially similar results.
The four RGD surrogates, AC-4.

DTH response to OX = experiment: Inhibition of DTH response to OX in mice (ear swelling); assay type: in vivo, BALB/c mice; parameters: % inhibition of DTH response: concentration or dose not given beside the values; conditions: I.V.; for Δ Ear swelling: ± SD, positive control 21 ± 2
Protocol: To examine the regulatory role of SF-6,5 on T cell immunity and lymphocyte migration in vivo, a delayed-type hypersensitivity (DTH) reaction experiment was performed in which groups of BALB/c mice (6 mice per group) were sensitized on the shaved abdomen with the skin allergen 4-ethoxymethylene-2-phenyl oxazolone (OX) (10 μl of 3% OX in acetone/olive oil) and challenged again 5 days later by applying OX to their ears. The increment in ear swelling was recorded 24 hours later as a measure of DTH. The individual measuring of ear swelling was blinded to the identity of the groups of mice. GRGDS, RGD surrogate compound SF-6,5 and RGE surrogate compound SF-6,6 were administrated I.V. in 200μl PBS into the tail vein on the indicated days. Control groups of mice were treated identically with PBS.
These findings indicate that modulation of cell-mediated immune reactions in vivo may be achieved by relatively low doses of non-peptidic RGD analogue, most probably by means of interfering with lymphocyte migration.

GPIIb-IIIa = GPIIb-IIIa (Homo sapiens, UniProt P05106+P08514); experiment: Inhibition of the binding capacity of anti-GPIIb-IIIa mAb (PAC-1) to platelets; conditions: FIG. 6, 0-500μM, ADP-activated platelets
Protocol: To investigate whether the RGD surrogates actually bind to the GPIIb-IIIa integrin, their ability to compete with a monoclonal antibody (mAb) specific to GPIIb-IIIa was investigated. This mAb, designated PAC-1, specific for the activated receptor, binds GPIIb-IIIa in an RGD-dependent manner (Taub, R. et al. (1989) J.Biol.Chem. 264: 259).
ADP-activated platelets were incubated with FITC-conjugated PAC-1 mAb in the presence of various peptidic and non-peptidic compounds, as follows: the platelet rich plasma were gel-filtrated into modified Tryode's solution (137.5 mM Nacl, 4 mN Hepes, 2.6 mM KCl,1 mM MgCl2, 3.3 mM NaH2 PO4, 5.6 mM glucose at pH 7.4) containing 350μg/ml BSA (which was used as the incubation buffer in further steps; Tryode's/BSA). The final count in the cell assays was 2×10^6 per ml. The cells were then activated with 10μM ADP and epinephrine. To examine RGD peptides and related analogues as competitors for the binding capacity of the PAC-1 mAb to platelets, the cells were incubated in 50μl Tryode's/BSA supplemented with 1 mM CaCl2 for 30 min in 25° C., in the presence of 0-500μM peptides or peptide-analogues with 10μg/ml FITC labeled PAC-1. The fluorescence profile of the cells was determined using FACScan (Beckton Dickenson) at 488 nm. In FIG. 6: GRGDSPK (empty circles), GRGESP (filled triangles), compound SF-6,5 (empty triangles), compound SF-6,6 (filled circles) (the data shown here represent results obtained in one of three experiments which were essentially identical).

[2] = injected on days 1 to 6, * P<0.01

Row | Compound | % inhibition of adhesion of activated CD4^+ T cell to 120 kD fragment of FN [1] [%] | % Adhesion of activated CD4^+ T cell to 120 kD fragment of FN [1] [%] | T cell adhesion to FN, in words [1] | % inhibition of DTH response (DTH response to OX; injected on days 1 to 6) | Δ Ear swelling (DTH response to OX; [2]) | Inhibition of PAC-1 binding to platelets, in words (GPIIb-IIIa) | Inhibition of DTH response, in words (DTH response to OX) | % inhibition of DTH response (DTH response to OX; injected on day 1) [%] | Δ Ear swelling (DTH response to OX; injected on day 1) | % inhibition of DTH response (DTH response to OX; injected on days 1, 3) [%] | % inhibition of DTH response (DTH response to OX; injected on days 1, 3, 5) [%] | Δ Ear swelling (DTH response to OX; injected on days 1, 3, 5, * P<0.01) | Δ Ear swelling (DTH response to OX; injected on days 1, 3)
1 | N=C(N)NCCCCCC(=O)NCCCCCC(=O)O [SF-6,6] | 0 | 46 ± 2 | did not inhibit T cell adhesion to both FN and LN | None | 23 ± 4 × 10^-2 mm | failed to inhibit PAC-1 binding to the platelet integrin receptor |  |  |  |  |  |  | 
2 | GRGDSPK [RGD peptide (Sigma)] | 54 | 20 ± 2 | specifically inhibited | 20% | 17 ± 3 × 10^-2 mm | inhibited PAC-1 staining of the cells in a dose-dependent manner |  |  |  |  |  |  | 
3 | N=C(N)NCCCCCC(=O)NCCCCC(=O)O [SF-6,5, 6-aza-7-oxo-12-quanidino-dodecanoic acid] | 49 | 22 ± 2 | most prominent inhibition | 95% | 2 ± 1 × 10^-2 mm | inhibited PAC-1 staining of the cells in a dose-dependent manner | inhibited the DTH response best when the mice were injected for 6 days; also recorded: better inhibitor of the DTH response than the GRGDS peptide | 20 | 16 ± 3 × 10^-2 mm | 34 | 62 | 8 ± 2 × 10^-2 mm | 13 ± 2 × 10^-2 mm
